Patent US8450306B2, “Bradykinin B1-receptor antagonists” (Boehringer Ingelheim International GmbH, priority 2007, dated 2013)

Target: T1, hBK1 receptor (Homo sapiens, UniProt P46663)
T1 construct: expressed in transfected cells; host or cells: CHO cells (membrane homogenate)
T1 sequence (P46663 1-353): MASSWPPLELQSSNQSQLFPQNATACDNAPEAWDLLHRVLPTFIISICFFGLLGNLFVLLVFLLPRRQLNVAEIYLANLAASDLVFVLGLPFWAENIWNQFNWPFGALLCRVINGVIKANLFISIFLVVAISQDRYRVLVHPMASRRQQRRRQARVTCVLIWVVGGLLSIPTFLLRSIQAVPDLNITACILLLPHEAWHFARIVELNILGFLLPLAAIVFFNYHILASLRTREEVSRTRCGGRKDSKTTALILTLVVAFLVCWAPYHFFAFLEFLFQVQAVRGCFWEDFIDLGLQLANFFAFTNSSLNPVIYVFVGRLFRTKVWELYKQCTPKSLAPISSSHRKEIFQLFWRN
Experiment: hBK1 receptor binding
Conditions: membranes of CHO cells expressing the hBK1 receptor; radioligand 0.5 to 1.0 nM kallidin (DesArg10, Leu9), [3,4-prolyl-3,43H(N)]; 60 minutes, room temperature
Experimental: Description of the Method of hBK1 Receptor Binding
CHO cells expressing the hBK1 receptor are cultivated in Dulbecco's modified medium. The medium from confluent cultures is removed and the cells are washed with PBS buffer, scraped off and isolated by centrifugation. The cells are then homogenized in suspension and the homogenate is centrifuged and resuspended. The protein content is determined and the membrane preparation obtained in this manner is then frozen at −80° C.
After thawing, 200 μl of the homogenate (50 to 100 μg of proteins/assay) are incubated at room temperature with 0.5 to 1.0 nM of kallidin (DesArg10, Leu9), [3,4-prolyl-3,43H(N)] and increasing concentrations of the test substance in a total volume of 250 μl for 60 minutes. The incubation is terminated by rapid filtration through GF/B glass fibre filters which had been pretreated with polyethyleneimine (0.3%). The protein-bound radioactivity is measured in a TopCount NXT. Non-specific binding is defined as radioactivity bound in the presence of 1.0 μM of kallidin (DesArg10, Leu9), [3,4-prolyl-3,43H(N)]. The concentration/binding curve is analysed using a computer-assisted nonlinear curve fitting. The K which corresponds to the test substance is determined using the data obtained in this manner. […]

Ki: 1.04 nM
SMILES: COc1cc(C)c(S(=O)(=O)N(C)CCOCC(=O)N(C)[C@@H]2CCN(C3CCN(C)CC3)C2)c(C)c1 [(394)]
